The values that follow come from ChEMBL document CHEMBL4387717, “Structure guided drug design to develop kallikrein 5 inhibitors to treat Netherton syndrome” (Bioorg Med Chem Lett, 2019).

Values after ≈ are worked out from the molar mass of the structure shown. Where only a bound is given, the exact number is not on record here.

The target in one data set is T1, Kallikrein-14 (Homo sapiens, UniProt Q9P0G3).
T1 sequence (Q9P0G3 whole entry): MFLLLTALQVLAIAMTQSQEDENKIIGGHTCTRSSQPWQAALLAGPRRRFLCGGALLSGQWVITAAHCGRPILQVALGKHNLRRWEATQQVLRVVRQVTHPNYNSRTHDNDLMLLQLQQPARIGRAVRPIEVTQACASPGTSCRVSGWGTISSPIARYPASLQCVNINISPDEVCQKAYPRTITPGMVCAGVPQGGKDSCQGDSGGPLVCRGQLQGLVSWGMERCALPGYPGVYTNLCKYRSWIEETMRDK
Put plainly: Inhibition of recombinant C-terminal 10His-tagged human KLK14 (Gln19 to Met248 residues) expressed in mouse NS0 cells using BOC-VPR-AMC as substrate after 40 mins by fluorescence intensity assay.

For the next data set, the target named is Kallikrein-1 (Homo sapiens, UniProt P06870). Kind of data set: Inhibition of recombinant bovine enterokinase activated N-terminal His-tagged recombinant human KLK1 (19 to 262 residues) expressed in baculovirus infected Sf9 insect cells using 3',6'-bis(prolylphenylalanylarginylamino)3H-spiro(2-benzofuran-1,9'-xanthen)-3-one;TFA as substrate measured at 30 secs interval for 5 mins by fluorescence intensity assay.

The target of the next data set is Plasma kallikrein (Homo sapiens, UniProt P03952). Put plainly: Inhibition of recombinant C-terminal 6-His tagged human KLKB1 (Gly20 to Ala638 residues) expressed in mouse NS0 cells using P-F-R-AMC as substrate after 40 mins by fluorescence intensity assay.
The next data set addresses Kallikrein-7 (Homo sapiens, UniProt P49862). Kind of data set: Inhibition of recombinant C-terminal 10His-tagged human KLK7 (Glu23 to His252 residues) expressed in mouse NS0 cells using 5-FAM-E-A-L-Y-L-V-S-G-C as substrate after 40 mins by fluorescence intensity assay.
In a further data set the target is T2, Kallikrein-8 (Homo sapiens, UniProt O60259).
T2 sequence (O60259 whole entry): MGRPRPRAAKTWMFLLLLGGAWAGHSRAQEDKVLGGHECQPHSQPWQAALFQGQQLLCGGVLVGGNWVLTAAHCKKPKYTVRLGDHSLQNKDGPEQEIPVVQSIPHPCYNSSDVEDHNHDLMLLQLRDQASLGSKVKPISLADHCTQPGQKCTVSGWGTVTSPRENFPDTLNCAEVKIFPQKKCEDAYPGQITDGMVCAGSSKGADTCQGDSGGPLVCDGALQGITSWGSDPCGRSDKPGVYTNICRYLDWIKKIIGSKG
Kind of data set: Inhibition of recombinant C-terminal 10-His tagged human KLK8 (Gln29 to Gly260 residues) expressed in mouse NS0 cells using BOC-VPR-AMC as substrate after 40 mins by fluorescence intensity assay.

The target in the next data set is Coagulation factor X (Homo sapiens, UniProt P00742). Kind of data set: Inhibition of recombinant C-terminal 10His-tagged human coagulation factor 10a (Leu24 to Lys488 residues) expressed in baculovirus infected Sf9 insect cells using Mca-RPKPVE-Nval-WRK(Dnp)-NH2 as substrate after 40 mins by fluorescence intensity assay.
A further data set concerns the target T3, Neutrophil elastase (Homo sapiens, UniProt P08246).
T3 sequence (P08246 whole entry): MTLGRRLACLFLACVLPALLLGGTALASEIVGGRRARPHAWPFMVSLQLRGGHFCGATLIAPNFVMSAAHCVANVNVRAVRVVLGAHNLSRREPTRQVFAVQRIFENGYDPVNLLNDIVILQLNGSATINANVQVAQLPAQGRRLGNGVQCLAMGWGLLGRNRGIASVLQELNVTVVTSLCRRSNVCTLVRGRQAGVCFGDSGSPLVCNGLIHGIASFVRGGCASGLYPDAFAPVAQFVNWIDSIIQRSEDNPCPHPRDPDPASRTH
Kind of data set: Inhibition of human neutrophil elastase using MeOSuc-AAPV-AMC as substrate after 40 mins by fluorescence intensity assay.

The target of another data set is Prothrombin (Homo sapiens, UniProt P00734). Kind of data set: Inhibition of recombinant C-terminal 10His-tagged human thrombin (Met1 to Glu622 residues) expressed in mouse NS0 cells using BOC-VPR-AMC as substrate after 40 mins by fluorescence intensity assay.
The target of data set [1] is Urokinase-type plasminogen activator (Homo sapiens, UniProt P00749). Kind of data set: Inhibition of recombinant C-terminal 10His-tagged human urokinase (Met1 to Leu431 residues) expressed in mouse NS0 cells using Z-GGR-AMC as substrate after 40 mins by fluorescence intensity assay.
The species entered for data set [2] is Homo sapiens. Kind of data set: Selectivity index, ratio of compound effect for inhibition of recombinant C-terminal 6-His tagged human KLKB1 (Gly20 to Ala638 residues) expressed in mouse NS0 cells to compound effect for inhibition of recombinant 6His-Q-FLAG tagged human KLK5 expressed in baculovirus infected insect Sf9 cells.
For data set [3], the species on record is Homo sapiens. Put plainly: Selectivity index, ratio of compound effect for inhibition of recombinant C-terminal 10-His tagged human KLK14 (Gln19 to Met248 residues) expressed in mouse NS0 cells to compound effect for inhibition of recombinant 6His-Q-FLAG tagged human KLK5 expressed in baculovirus infected insect Sf9 cells.
For data set [4], the species on record is Homo sapiens. Put plainly: Selectivity index, ratio of compound effect for inhibition of recombinant C-terminal 10-His tagged human coagulation factor 10a (Leu24 to Lys488 residues) expressed in baculovirus infected insect Sf9 cells to compound effect for inhibition of recombinant 6His-Q-FLAG tagged human KLK5 expressed in baculovirus infected insect Sf9 cells.

For data set [5], the species on record is Homo sapiens. Kind of data set: Selectivity index, ratio of compound effect for inhibition of recombinant human N-terminal met-His6-tagged matriptase catalytic domain (Gly596 to Val855 residues) expressed in Escherichia coli to compound effect for inhibition of recombinant 6His-Q-FLAG tagged human KLK5 expressed in baculovirus infected insect Sf9 cells.

Data set [6] is filed under the species Homo sapiens. Put plainly: Selectivity index, ratio of compound effect for inhibition of human neutrophil elastase to compound effect for inhibition of recombinant 6His-Q-FLAG tagged human KLK5 expressed in baculovirus infected insect Sf9 cells.
For data set [7], the species on record is Homo sapiens. Put plainly: Selectivity index, ratio of compound effect for inhibition of recombinant C-terminal 10-His tagged human urokinase (Met1 to Leu431 residues) expressed in mouse NS0 cells to compound effect for inhibition of recombinant 6His-Q-FLAG tagged human KLK5 expressed in baculovirus infected insect Sf9 cells.
The test system of data set [8] is Keratinocyte. Kind of data set: Induction of irritation in human epidermal keratinocytes assessed as effect on cell viability over 24 hrs. It is filed as cell-based.
The nature of data set [9]: Solubility of the compound in pH 6 Britton-Robinson buffer at 24 hrs. It is filed as physicochemical. The following applies: Britton-Robinson buffer, pH 6.
The nature of data set [10]: Half life in pH 4 to 8 buffer at 0.05 mg/ml over 24 hrs. Type of data set: physicochemical.
Data set [11] is described as follows: Half life in pH 6 buffer at 0.05 mg/ml under H2O2-induced oxidative condition over 24 hrs. It is filed as physicochemical. The following applies: buffer with H2O2, pH 6.
A short description of data set [12]: Half life in pH 8 buffer at 0.05 mg/ml under H2O2-induced oxidative condition over 24 hrs. Type of data set: physicochemical. The following applies: buffer with H2O2, pH 8.
Data set [13] in a line: Absorption property in methanol assessed as maximum absorption wavelength by UV-spectra analysis. It is filed as physicochemical.
Data set [14] deals with Keratinocyte. Put plainly: Induction of irritation in human epidermal keratinocytes assessed as effect on IL1alpha levels over 24 hrs. Type of data set: cell-based.

The IC50 is the concentration needed to halve the response being measured. By solubility is commonly meant the dissolved amount per volume that the medium holds. Lower therefore signals a poorly soluble substance. As usually defined, the half-life is the time in which the quantity being followed falls by half. Lower therefore signals rapid decline. On to `N=C(N)c1ccc(NCc2nc(-c3ccccc3)c[nH]2)cc1OCc1cccnc1`, for which the half-inhibitory concentration (IC50) on Kallikrein-14 is 3.98 µM; on Kallikrein-1, 63.1 µM; on Plasma kallikrein it was 6.31 µM; on Kallikrein-7, > 100 µM; on Kallikrein-8 it was 0.794 µM; on Coagulation factor X, > 100 µM. The half-inhibitory concentration (IC50) against Neutrophil elastase was > 100 µM; on Prothrombin, 63.1 µM; in data set [1] it was > 100 µM. In addition, the Selectivity Index in the data set listed under Homo sapiens [2], in the data set filed under Homo sapiens [3], in the data set listed under Homo sapiens [4], in the data set filed under Homo sapiens [5], in the data set listed under Homo sapiens [6] and in the data set listed under Homo sapiens [7] was > 100 each time. The figures for the Activity result (with Keratinocyte [8]; in [13]; with Keratinocyte [14]) were “Non-Toxic”, > 290 nm and “Non-Toxic”, respectively. This molecule also had a solubility at 24 h in data set [9] of 290 µg/mL (≈ 728 µM). For the same molecule, the values for the half-life at 0.05 mg/ml in data set [10], in data set [11] and in [12] were > 1000 h, 27.8 h and 10.1 h, respectively.
